Patent US9771358B2, “Dihydropyrimidine compounds and their application in pharmaceuticals” (SUNSHINE LAKE PHARMA CO., LTD., priority 2014, dated 2017)
Read-outs that look alike come from different tables or passages of the source.

Key:
HBV = experiment: In-vitro anti-HBV activity in stable HBV-producing cell line (HepG2.2.15), HBV DNA by qPCR; type: cell-based; settings: Hepatitis B virus
Procedure: HBV DNA contents in cell culture fluid were detected by the qPCR-based assay and 50% effective concentration (EC50) values of the compounds against HBV were calculated. Specific procedures are as follows:
HepG2.2.15 cells were seeded into each well of 96-well plates, 40,000 cells per well. Cells were treated with cell culture medium containing compounds with different concentrations for 24 hours after cell seeding. The final concentration of each compound was 16.4 μM in each well and each compound was diluted to desired concentration using 3-fold gradient dilution protocol, 9 diluted points in duplicate. The culture mediums containing the compounds were refreshed on day 4 post cell seeding. Culture media were collected from the HepG2.2.15 plates on day 7 post cell seeding followed by HBV DNA extraction.
HBV DNA extraction: The HBV DNA extraction was performed using QIAamp 96 DNA Blood Kit (QIAGEN 51161).
PCR for quantification: PCR mix was prepared according to PCR system. PCR mix was dispensed to 96-well optical reaction plates (special for quantification). The standard diluted proportionally was added. Then the sample was added; The plates were sealed with optical adhesive film; PCR system was performed according to programs.
Percentage of HBV inhibition of DNA replication by compound was calculated using the following equation: % Inh.=[1-HBV DNA quantity of sample/HBV DNA quantity of DMSO control]×100.
Calculating EC50 value of compounds to HBV replication: the EC50 values were calculated based on “four-parameter logistic equation” and using GraphPad Prism 5 analysis software.

[1] = PK of test compounds in beagle; type: in vivo, beagle dog; settings: for Cmax / Tmax / clearance / half-life / AUC(0-inf) / AUC(0-t) / Vd: dog, plasma; for AUC(0-inf): AUC in 0 hour to infinite time; for Vd: read-out: Vss; for F: absolute bioavailability
Procedure: The test compounds were administrated to beagle dog by gavage in dose of 2.5 mg/kg or 5 mg/kg, or by intravenous injection in dose of 1 mg/kg or 2 mg/kg. Blood sample was collected at 0.083, 0.25, 0.5, 1, 2, 4, 6, 8 and 24 hours from vein after administration into anticoagulation tubes with EDTA-K2. The test compounds were extracted from plasma samples and chromatographed on a tandem mass spectrometer. Quantitation was performed using multiple reaction monitoring (MRM). Pharmacokinetic parameters were calculated using WinNonlin 6.3 software with non compartment model.

[2] = Stability in liver microsome, human; type: in vitro ADME; settings: liver microsomes; human liver microsome 0.1 mg/mL, compound 1 μM, NADPH 2 mM
Procedure: (§1) Then two parallel samples were prepared. After a 10 minutes preincubation at 37° C., 15 μL of NADPH solution (8 mM) was added according to the point-in-time. The final concentration of the text compound was 1 μM, the concentration of liver microsome was 0.1 mg/mL, the final concentration of NADPH was 2 mM. The incubations were last for 0, 15, 30, 60 min respectively, and then 150 μL of acetonitrile (include interior label) was added to the mixture system. After dilution with acetonitrile, the samples were centrifuged for 5 minutes in 4000 rpm. The supernatant liquid was collected for LC-MS/MS analysis.

[3] = Stability in liver microsome, dog; type: in vitro ADME; settings: liver microsomes; dog liver microsome 0.1 mg/mL, compound 1 μM, NADPH 2 mM
Procedure: as §1

[4] = Stability in liver microsome, mouse; type: in vitro ADME; settings: liver microsomes; mouse liver microsome 0.1 mg/mL, compound 1 μM, NADPH 2 mM
Procedure: as §1

[5] = Stability in liver microsome, monkey; type: in vitro ADME; settings: liver microsomes; monkey liver microsome 0.1 mg/mL, compound 1 μM, NADPH 2 mM
Procedure: as §1

[6] = 168 h, HepG2.2.15 cells, HBV DNA in culture fluid, day 7, top concentration 16.4 μM
[7] = iv, 1 mg/kg, iv, 1 mg/kg, AUC in 0-24 hours, read-out: AUClast
[8] = po, 2.5 mg/kg, po, 2.5 mg/kg value multiplied by 2, read-out: AUClast ×2 (calculated by dosage)
[9] = po, 2.5 mg/kg, po, 2.5 mg/kg, AUC in 0-24 hours, read-out: AUClast

Compound	EC50 (HBV; [6]) [nM]	Cmax ([1]; iv, 1 mg/kg) [ng/mL]	Tmax ([1]; iv, 1 mg/kg) [h]	clearance ([1]; iv, 1 mg/kg) [mL/min/kg]	half-life ([1]; iv, 1 mg/kg) [h]	AUC(0-inf) ([1]; iv, 1 mg/kg) [ng·h/mL]	AUC(0-t) [1, 7] [ng·h/mL]	Vd ([1]; iv, 1 mg/kg) [L/kg]	Cmax ([1]; po, 2.5 mg/kg) [ng/mL]	Tmax ([1]; po, 2.5 mg/kg) [h]	half-life ([1]; po, 2.5 mg/kg) [h]	AUC(0-inf) ([1]; po, 2.5 mg/kg) [ng·h/mL]	CLint scaled at 1 μM [2] [mL/min/kg]	half-life at 1 μM [2] [h]	CLint scaled at 1 μM [3] [mL/min/kg]	half-life at 1 μM [3] [h]	CLint scaled at 1 μM [4] [mL/min/kg]	half-life at 1 μM [4] [h]	CLint scaled at 1 μM [5] [mL/min/kg]	half-life at 1 μM [5] [h]	further results
COC(=O)C1=C(CN2CCO[C@H](CCC(=O)O)C2)NC(c2nccs2)=N[C@H]1c1ccc(F)cc1Cl [Example 10, 3-((R)-4-(((R)-6-(2-Chloro-4-fluorophenyl)-5-(methoxycarbonyl)-2-(thiazol-2-yl)-3,6-dihydropyrimidin-4-yl)methyl)morpholin-2-yl)propanoic acid]	45	2430	0.083	1.74	5.16	9710	9400	0.62	4560	0.833	4.57	28000	3.72	7.78	6.13	9.39	57.7	1.58	15.4	2.19	AUC(0-t) [1, 8]: 54000 ng·h/mL; AUC(0-t) [1, 9]: 27400 ng·h/mL; F ([1]; po, 2.5 mg/kg): 115%
CCOC(=O)C1=C(CN2CCO[C@H](CCC(=O)O)C2)NC(c2nccs2)=N[C@H]1c1ccc(F)cc1Br [Example 2, 3-((R)-4-(((R)-6-(2-Bromo-4-fluorophenyl)-5-(ethoxycarbonyl)-2-(thiazol-2-yl)-3,6-dihydropyrimidin-4-yl)methyl)morpholin-2-yl)propanoic acid]	35	2050	0.083	1.93	5.71	8700	8270	0.756	–	–	–	–	17.5	1.66	14.3	4.02	385	0.236	107	0.314	Cmax ([1]; po, 5 mg/kg): 6330 ng/mL; Tmax ([1]; po, 5 mg/kg): 1.33 h; half-life ([1]; po, 5 mg/kg): 5.1 h; AUC(0-inf) ([1]; po, 5 mg/kg): 49600 ng·h/mL; AUC(0-t) ([1]; po, 5 mg/kg, po, 5 mg/kg, AUC in 0-24 hours, read-out: AUClast): 47900 ng·h/mL; F ([1]; po, 5 mg/kg): 114.1%
CCOC(=O)C1=C(CN2CCO[C@H](CCC(=O)O)C2)NC(c2nccs2)=N[C@H]1c1ccc(Cl)cc1Cl [Example 12, 3-((R)-4-(((R)-6-(2,4-dichlorophenyl)-5-(ethoxycarbonyl)-2-(thiazol-2-yl)-3,6-dihydropyrimidin-4-yl)methyl)morpholin-2-yl)propanoic acid]	26	2230	0.083	2.12	6.2	7970	7570	0.832	2660	0.5	9.07	16800	18.6	1.56	17.5	3.28	604	0.15	122	0.277	AUC(0-t) [1, 8]: 30000 ng·h/mL; AUC(0-t) [1, 9]: 15000 ng·h/mL; F ([1]; po, 2.5 mg/kg): 84.48%
COC(=O)C1=C(CN2CCO[C@H](CCC(=O)O)C2)NC(c2nccs2)=N[C@H]1c1ccc(Cl)cc1Cl [Example 13, 3-((R)-4-(((R)-6-(2,4-dichlorophenyl)-5-(methoxycarbonyl)-2-(thiazol-2-yl)-3,6-dihydropyrimidin-4-yl)methyl)morpholin-2-yl)propanoic acid]	28	2920	0.083	1.49	5.08	11600	11200	0.526	6410	0.667	5.29	33300	17.2	1.68	5.51	10.5	135	0.673	36	0.94	AUC(0-t) [1, 8]: 64400 ng·h/mL; AUC(0-t) [1, 9]: 32200 ng·h/mL; F ([1]; po, 2.5 mg/kg): 105.6%
CCOC(=O)C1=C(CN2CCO[C@H](CCC(=O)O)C2)NC(c2nccs2)=N[C@H]1c1ccc(F)cc1Cl [Example 9, 3-((R)-4-(((R)-6-(2-Chloro-4-fluorophenyl)-5-(ethoxycarbonyl)-2-(thiazol-2-yl)-3,6-dihydropyrimidin-4-yl)methyl)morpholin-2-yl)propanoic acid]	48	2570	0.083	1.51	6.59	11300	10600	0.63	4360	0.5	4.62	24800	11.4	2.53	19.4	2.96	281	0.324	75.6	0.447	EC50 (HBV; HepG2.2.15, isomers of compound of formular (II)): 48 nM; AUC(0-t) [1, 8]: 48600 ng·h/mL; AUC(0-t) [1, 9]: 24300 ng·h/mL; F ([1]; po, 2.5 mg/kg): 87.91%
COC(=O)C1=C(CN2CCO[C@H](CCC(=O)O)C2)NC(c2nccs2)=N[C@H]1c1ccc(F)cc1Br [Example 11, 3-((R)-4-(((R)-6-(2-Bromo-4-fluorophenyl)-5-(methoxycarbonyl)-2-(thiazol-2-yl)-3,6-dihydropyrimidin-4-yl)methyl)morpholin-2-yl)propanoic acid]	35	3400	0.139	1.59	4.99	10900	10500	0.545	4310	0.75	4.92	24400	6.93	4.18	10.1	5.72	86.3	1.05	14.4	2.34	AUC(0-t) [1, 8]: 47400 ng·h/mL; AUC(0-t) [1, 9]: 23700 ng·h/mL; F ([1]; po, 2.5 mg/kg): 89.66%
